According to US4746675A, “External pharmaceutical composition” (Teijin Limited, priority 1983, dated 1988):

Tests used:
[1] = tested on: eye (cornea, iris, conjunctiva); test: primary eye irritation (Draize) in rabbits; assay type: in vivo, white native male rabbits; conditions: 0.8% soln, average of three rabbits
Procedure: enhancers of this invention shown in Table 17 was applied dropwise to one eye of white native male rabbits (body weight 2.0 to 3.0 kg; 3 per group) which, it had been ascertained, were free from any trouble at the cornea, iris and conjunctiva. Nothing was applied to the other eye. Thus, irritation of the absorption aid to the mucous membrane of the eyes were examined, and scores were calculated in accordance with the Draize's eye irritation evaluating method [Association of Foods, "Drugs and Cosmetics" (1957)].
As a control, sodium laurylsulfate, a kind of surface-active agent, was evaluated in the same way, and the results are also shown in Table 17.

carrageenan edema = carrageenan edema inhibiting effect of betamethasone valerate ointments; assay type: in vivo, rat; conditions: Table 5, betamethasone valerate ointment with penetration enhancer
Procedure: An ointment was prepared from 0.15 part by weight of betamethasone valerate, 9.85 parts by weight of compound (168) and 90 parts by weight of the hydrophilic ointment.
In accordance with the method of R. Passarella et al. [Argneim. Forsch 30, (I), Nr. 4, 647-651 (1980)], the carrageenan edema inhibiting effect of the above ointment was examined. Specifically, 0.1 ml of a 1% carrageenan suspension in 0.9% NaCl solution was injected into the tip of the right leg of a rat (body weight 150-175 g). The foot volume was measured immediately after administration of carrageenan and 3, 5, and 6 hours after the administration by means of a mercury displacement device. 0.5, 1 and 2 hours after the administration of carrageenan, 100 mg of the ointment was well […] into each of the sites which underwent inflammation.
Various ointments were prepared from 0.15 part by weight of betamethasone valerate, […] of the various penetration enhancers shown in Table 5, and 85 parts by weight of the hydrophilic ointment, and tested in the same way as in Example 23.

Compound: CCCCCCCCCCCCOCC(O)COC(=O)[C@@H]1CCC(=O)N1 (some centres unmarked) [Compound (108), 3-dodecyloxy-2-hydroxy-1-pyroglutamyloxypropane]
- Primary irritation score, Conjunctiva ([1]; 1 hour): 2.0
- Primary irritation score, Cornea ([1]; 1 hour): 0
- Primary irritation score, Iris ([1]; 1 hour): 0
- Primary irritation score, Total ([1]; 1 hour): 2.0
- Primary irritation score, Conjunctiva ([1]; 3 hours): 2.0
- Primary irritation score, Cornea ([1]; 3 hours): 0
- Primary irritation score, Iris ([1]; 3 hours): 0
- Primary irritation score, Total ([1]; 3 hours): 2.0
- Primary irritation score, Conjunctiva ([1]; 6 hours): 1.3
- Primary irritation score, Cornea ([1]; 6 hours): 0
- Primary irritation score, Iris ([1]; 6 hours): 0
- Primary irritation score, Total ([1]; 6 hours): 1.3
- Primary irritation score, Conjunctiva ([1]; 24 hours): 0
- Primary irritation score, Cornea ([1]; 24 hours): 0
- Primary irritation score, Iris ([1]; 24 hours): 0
- Primary irritation score, Total ([1]; 24 hours): 0
- Primary irritation score, Conjunctiva ([1]; 48 hours): 0
- Primary irritation score, Cornea ([1]; 48 hours): 0
- Primary irritation score, Iris ([1]; 48 hours): 0
- Primary irritation score, Total ([1]; 48 hours): 0
- Primary irritation score, Conjunctiva ([1]; 72 hours): 0
- Primary irritation score, Cornea ([1]; 72 hours): 0
- Primary irritation score, Iris ([1]; 72 hours): 0
- Primary irritation score, Total ([1]; 72 hours): 0
- Primary irritation score, Conjunctiva ([1]; 96 hours): 0
- Primary irritation score, Cornea ([1]; 96 hours): 0
- Primary irritation score, Iris ([1]; 96 hours): 0
- Primary irritation score, Total ([1]; 96 hours): 0
- Primary irritation score, Conjunctiva ([1]; 168 hours): 0
- Primary irritation score, Cornea ([1]; 168 hours): 0
- Primary irritation score, Iris ([1]; 168 hours): 0
- Primary irritation score, Total ([1]; 168 hours): 0
- Percentage inhibition vs. control (carrageenan edema; 3 hrs): 20.1%
- Percentage inhibition vs. control (carrageenan edema; 5 hrs): 36.7%
- Percentage inhibition vs. control (carrageenan edema; 6 hrs): 36.7%
